In patent publication US20230116703A1, “NOVEL ERGOLINES AND METHODS OF TREATING MOOD DISORDERS” (priority 2021, published 2023):

Key:
5-HT2A receptor [1] = biological target: T1, 5-HT2A receptor (Homo sapiens, UniProt P28223); test: cell-based; assay type: cell-based; conditions: Ca^2+ flux, agonist; for EC50: read-out: 5-HT2A EC50
T1 construct: host or cells: HEK293
Procedure: (§1) Functional Assays at 5-HT2A, 5-HT2B, and 5-HT1A. Agonist activity at 5-HT2A, 5-HT2B, and 5-HT1A receptors was determined using a FLIPR Ca^2+ flux assay at WuXi AppTec (Hong Kong) Limited according to their standard protocols. Briefly, stably transfected cells expressing the receptor of interest (HEK293 for 5-HT2A and 5-HT2B; CHO cells for 5-HT1A) were grown and plated in a 384 well plate and incubated at 37° C. and 5% CO2 overnight. A solution of 250 mM probenecid in 1 mL FLIPR assay buffer was prepared fresh. This was combined with a fluorescent dye (Fluo-4 Direct™) to make a final assay concentration of 2.5 mM. […] The fluorescent dye was then added to the assay plate along with assay buffer to a final volume of 40 μL. The cell plate was incubated for 50 min at 37° C. and 5% CO2 and placed into the FLIPR Tetra along with the compound plate. 10 μL of references and compounds were then transferred from the compound plate into the cell plate and the fluorescent signal was read.

5-HT1B receptor = 5-HT1B receptor (Homo sapiens, UniProt P28222); test: cAMP accumulation agonist assay at 5-HT1B; assay type: cell-based; conditions: cAMP, agonist; for EC50: read-out: 5-HT1B EC50
Sequence of 5-HT1B receptor (P28222 whole entry): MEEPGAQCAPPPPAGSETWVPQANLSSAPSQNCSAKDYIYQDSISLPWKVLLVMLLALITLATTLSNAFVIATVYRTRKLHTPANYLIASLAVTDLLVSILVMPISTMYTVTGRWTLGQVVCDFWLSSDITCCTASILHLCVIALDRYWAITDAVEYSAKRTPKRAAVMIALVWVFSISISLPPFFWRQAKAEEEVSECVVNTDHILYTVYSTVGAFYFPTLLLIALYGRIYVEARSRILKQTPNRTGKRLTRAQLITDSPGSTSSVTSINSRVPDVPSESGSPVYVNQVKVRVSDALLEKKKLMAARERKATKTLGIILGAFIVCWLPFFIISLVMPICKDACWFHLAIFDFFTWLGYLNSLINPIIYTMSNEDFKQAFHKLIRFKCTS
Procedure: Disclosed compounds were tested for agonist activity at several serotonin receptor subtypes (5-HT2A, […], 5-HT2C, and 5-HT1A) using Ca^2+ flux functional assays and the 5-HT1B receptor using a cAMP accumulation assay, with the results summarized in Table 4. […] Potent agonist activity was also observed at the other serotonin receptors tested, although the selectivity profile among the receptors varied across compounds. […]. However, at the same time, the N-propyl compounds were more efficacious agonists at 5-HT2B than the corresponding N-methyl compounds. The selectivity of disclosed compounds for 5-HT2A over 5-HT2C and 5-HT1A was less predictable and varied widely across compounds, ranging from ˜1:6 to ˜20:1 (2C/2A) in the case of 5-HT2C and from ˜1:4 to >100:1 (1A/2A) in the case of 5-HT1A. […] An azetidinyl amide substituent tended to increase potency at 5-HT1A relative to 5-HT2A.
Functional Assay at 5-HT1B. Agonist activity at 5-HT1B was determined using a cAMP accumulation protocol at WuXi AppTec (Hong Kong) Limited according to their standard protocols. Briefly, stably transfected cells were plated in an OptiPlate-384 well plate, incubated at RT for 60 mins, and cAMP standard solution (800 nM, 10 μL) was added to the blank well. Then, 10 μL detection reagent was added to each well, the plate incubated for 60 mins at RT, and the plate read using EnVision.

5-HT2A receptor [2] = biological target: T1, 5-HT2A receptor; test: biochemical; assay type: binding; conditions: for Ki: 1 nM [^3H]ketanserin, HEK293 stable cell line, read-out: 5-HT2A Receptor Ki (nM) ([^3H]ketanserin); for 5-HT2A receptor binding affinity / potency (in words): radioligand binding
Procedure: Affinity of the test compounds for the 5-HT2A receptor was determined in radioligand binding experiments with [^3H]ketanserin by WuXi AppTec (Hong Kong) Limited, using methods adapted from the literature and under conditions described in Table 1.

5-HT1A receptor = biological target: T2, 5-HT1A receptor (Homo sapiens, UniProt P08908); test: cell-based; conditions: Ca^2+ flux, agonist; for EC50: read-out: 5-HT1A EC50
T2 construct: host or cells: CHO cells
T2 sequence (P08908 1-422): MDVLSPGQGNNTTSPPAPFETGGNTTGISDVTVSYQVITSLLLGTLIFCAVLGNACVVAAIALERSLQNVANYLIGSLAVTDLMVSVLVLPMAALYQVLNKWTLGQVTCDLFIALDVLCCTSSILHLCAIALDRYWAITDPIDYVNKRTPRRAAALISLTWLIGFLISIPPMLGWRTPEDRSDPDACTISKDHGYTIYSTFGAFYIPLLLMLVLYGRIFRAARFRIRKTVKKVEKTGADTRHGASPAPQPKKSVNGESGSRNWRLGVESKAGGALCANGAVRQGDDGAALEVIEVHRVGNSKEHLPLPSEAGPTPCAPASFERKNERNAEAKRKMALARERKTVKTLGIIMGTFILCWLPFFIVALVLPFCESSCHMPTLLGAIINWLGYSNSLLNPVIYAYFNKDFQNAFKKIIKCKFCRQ
Procedure: as §1

5-HT2B receptor = biological target: T3, 5-HT2B receptor (Homo sapiens, UniProt P41595); test: cell-based; conditions: Ca^2+ flux, agonist; for EC50: read-out: 5-HT2B EC50
T3 construct: host or cells: HEK293
T3 sequence (P41595 whole entry): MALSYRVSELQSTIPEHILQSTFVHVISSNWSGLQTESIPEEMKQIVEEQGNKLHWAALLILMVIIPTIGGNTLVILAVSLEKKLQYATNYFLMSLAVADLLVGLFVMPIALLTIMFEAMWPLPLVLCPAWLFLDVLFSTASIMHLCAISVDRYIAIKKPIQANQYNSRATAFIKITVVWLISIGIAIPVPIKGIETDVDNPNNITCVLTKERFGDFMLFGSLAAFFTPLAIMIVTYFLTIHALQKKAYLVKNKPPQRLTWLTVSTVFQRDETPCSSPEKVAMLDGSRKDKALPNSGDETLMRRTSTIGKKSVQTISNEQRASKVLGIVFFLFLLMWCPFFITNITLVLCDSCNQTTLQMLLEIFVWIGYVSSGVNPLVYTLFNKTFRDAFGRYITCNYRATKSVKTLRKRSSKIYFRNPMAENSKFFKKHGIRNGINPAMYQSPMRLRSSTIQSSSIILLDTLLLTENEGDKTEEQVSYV
Procedure: as §1

[3] = Metabolic stability in human liver microsomes (HLM); assay type: in vitro ADME; conditions: both sexes, human, pooled human liver microsomes, pH 7.4, 0.50 mg protein per mL
Excerpt: HLM Stability. Pooled HLM from adult male and female donors (Corning 452117) were used.

T1 sequence (P28223 whole entry): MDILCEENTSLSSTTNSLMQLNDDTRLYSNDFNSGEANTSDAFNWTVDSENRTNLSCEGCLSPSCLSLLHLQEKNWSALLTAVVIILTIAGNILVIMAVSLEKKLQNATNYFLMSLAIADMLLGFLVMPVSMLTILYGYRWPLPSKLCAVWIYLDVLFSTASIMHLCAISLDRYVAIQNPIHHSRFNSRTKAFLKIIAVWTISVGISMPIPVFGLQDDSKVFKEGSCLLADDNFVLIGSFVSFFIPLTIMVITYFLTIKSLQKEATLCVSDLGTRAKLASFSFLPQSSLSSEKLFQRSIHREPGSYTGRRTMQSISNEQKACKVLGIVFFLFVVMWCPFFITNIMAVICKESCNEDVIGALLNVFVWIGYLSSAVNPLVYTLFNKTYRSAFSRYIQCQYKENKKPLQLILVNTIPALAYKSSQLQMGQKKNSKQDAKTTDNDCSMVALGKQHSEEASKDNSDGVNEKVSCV

Structure (SMILES)	5-HT2A % Act @ Max Dose (5-HT2A receptor [1]) [%]	EC50 (5-HT2A receptor [1]) [nM]	5-HT1B % Act @ Max Dose (5-HT1B receptor) [%]	EC50 (5-HT1B receptor) [nM]	Ki (5-HT2A receptor [2]) [nM]	5-HT1A % Act @ Max Dose (5-HT1A receptor) [%]	EC50 (5-HT1A receptor) [nM]	5-HT2B % Act @ Max Dose (5-HT2B receptor) [%]	EC50 (5-HT2B receptor) [nM]	half-life at 1 μM [3] [min]	microsomal CLint at 1 μM [3] [µL/min/mg]	5-HT2A receptor binding affinity / potency (in words) (5-HT2A receptor [2])
CCC[C@@H](C)NC(=O)[C@@H]1C=C2c3cccc4[nH]c(Br)c(c34)C[C@H]2N(C)C1 [Compound 45, (6aR,9R)-5-bromo-N—((R)-pentan-2-yl)-7-methyl-4,6,6a,7,8,9-hexahydroindolo[4,3-fg]quinoline-9-carboxamide]	22.28	133	87.10	245	0.38	12.53	> 10000	−0.31	> 10000	7.9	176	–
C[C@H]1C[C@H](C)N1C(=O)[C@@H]1C=C2c3cccc4[nH]cc(c34)C[C@H]2N(CCCF)C1 [Compound 26, ((2S,4S)-2,4-dimethylazetidin-1-yl)((6aR,9R)-7-(3-fluoropropyl)-4,6,6a,7,8,9-hexahydroindolo[4,3-fg]quinolin-9-yl)methanone]	83.23	15.6	77.16	734	11.3	97.94	3.63	100.66	431	20.5	67.7	–
CCN(CC)C(=O)[C@@H]1C=C2c3cccc4c3C(CN4)C[C@H]2N(C)C1 (mixture of isomers) [Compound 37, (6aR,9R)—N,N-diethyl-7-methyl-4,5,5a,6,6a,7,8,9-octahydroindolo[4,3-fg]quinoline-9-carboxamide]	76.37	76.6	90.74	19.4	11.4	108.98	17.2	24.06	465	> 145	< 9.6	reduced in potency
CCCN1C[C@H](C(=O)N(CC)CC)C=C2c3cccc4c3C(CN4)C[C@H]21 (mixture of isomers) [Compound 36, (6aR,9R)—N,N-diethyl-7-propyl-4,5,5a,6,6a,7,8,9-octahydroindolo[4,3-fg]quinoline-9-carboxamide]	77.54	50.4	97.51	22.7	10.7	88.68	4.84	110.53	627	32.8	42.2	reduced in potency
CCCN1C[C@H](C(=O)N(CC)CC)C=C2c3cccc4[nH]c(Br)c(c34)C[C@H]21 [Compound 9, (6aR,9R)-5-bromo-N,N-diethyl-7-propyl-4,6,6a,7,8,9-hexahydroindolo[4,3-fg]quinoline-9-carboxamide]	75.81	228	81.46	264	1.11	101.39	96.5	89.6	400	9.9	140	–
CN1C[C@H](C(=O)N(CCF)CCF)C=C2c3cccc4[nH]cc(c34)C[C@H]21 [Compound 38, (6aR,9R)—N,N-bis(2-fluoroethyl)-7-methyl-4,6,6a,7,8,9-hexahydroindolo[4,3-fg]quinoline-9-carboxamide]	93.39	11.8	94.72	4.65	0.84	90.5	3.45	28.13	22.1	64	21.6	–
